Measurements taken from patent US20250161243A1, “MEF2 TRANSCRIPTIONAL ACTIVATORS TO TREAT NEUROLOGIC CONDITIONS” (The Scripps Research Institute, priority 2022, published 2025).
Entries after “also recorded” stand apart in the source; their conditions may differ. Counter-ions that a name gives are not always drawn.

System: MEF2 transcriptional activity
Assay: MEF2 transcriptional activity screen (Luciferase-MEF2 reporter in human neural progenitor cells)
Type: cell-based
Settings: Homo sapiens; concentration for half-maximal activity derived from the hill equation model; MEF2 luciferase reporter; read-out: qAC50

Compound | EC50 [nM]
Nc1c2ccccc2nc2ccccc12 [ACRISORCIN] | 19300
CC(C)[C@H](C(=O)Nc1ccc(C(=O)NO)cc1)c1ccccc1 [AR-42] | 438
C/C(=N\NC(=O)c1ccc(C(=O)O)s1)c1csc(-c2ccc(Cl)c(Cl)c2)c1O [ONO-7746] | 2570
Cc1sc2c(c1C)C(c1ccc(Cl)cc1)=N[C@@H](CC(=O)Nc1ccc(O)cc1)c1nnc(C)n1-2 [OTX-015] | 450
CCOC(=O)OC(C)OC(=O)CNC(=O)[C@@H](CSSC[C@@H](N)CCSC)Cc1ccccc1 (some centres unmarked) [PL-37] | 12900
Cc1[nH]c2ccccc2c1CCNCc1ccc(/C=C/C(=O)NO)cc1 [Panobinostat lactate] | 12.2
CC(C)OC(=O)CCC/C=C\C[C@H]1C(=O)C=C[C@@H]1/C=C/[C@@H](O)CCc1ccccc1 [Posaraprost] | > 4970
Cn1nccc1Nc1nccc(-c2ccn([C@H](CO)c3ccc(Cl)c(F)c3)c(=O)c2)n1 [RG-7842] | 12300
CNS(=O)(=O)Nc1nccc(Cc2c(C)c3ccc(Oc4ncccn4)cc3oc2=O)c1F [RO-5126766] | 39.1
COc1cc(F)c(F)c(Nc2ccc(I)cc2F)c1NS(=O)(=O)C1(C[C@H](O)CO)CC1 [Refametinib] | 2730
C=C(C)[C@]12C[C@@H](C)[C@@]34O[C@](Cc5ccccc5)(O[C@@H]1[C@@H]3C=C(COC(=O)Cc1ccc(O)c(OC)c1)C[C@]1(O)C(=O)C(C)=C[C@@H]41)O2 [Resiniferatoxin] | 5.11
CN(C)CCNC(=O)c1cccc2cc3ccccc3nc12 [SN-22995] | > 19900
COc1ccc2nc(-c3cccc(F)c3)cc(O)c2c1OP(=O)(OCc1ccccc1)OCc1ccccc1 [TRX-818] | 10000
CC(=O)Nc1ccc(C(=O)Nc2ccccc2N)cc1 [Tacedinaline] | 13100
CC(C)c1ccc(CN2CCN(C(c3ccc(F)cc3)c3ccc(F)cc3)CC2)c(=O)c(NCCO)c1 [U 92032] | > 19900
CC(C)(CO)c1cc2cc(NC(=O)C3(c4ccc5c(c4)OC(F)(F)O5)CC3)c(F)cc2n1C[C@@H](O)CO [VX-661] | > 19900
CCN(CC)CCNc1ccc(CNC)c2sc3ccccc3c(=O)c12 [WIN 33156] | > 19900
CN(C)Cc1c(C(=O)NCCOc2ccc(C(=O)NO)cc2)oc2ccccc12 [abexinostat] | 2200
O=C(/C=C/c1cccc(S(=O)(=O)Nc2ccccc2)c1)NO [belinostat] | 670
COc1cc2c(cc1O)C[C@H]1c3c(cc(O)c(OC)c3-2)CCN1C [boldine] | 13300
C[C@H](NC(=O)C(=O)Nc1ccccc1C(C)(C)C)C(=O)N[C@@H](CC(=O)O)C(=O)COc1c(F)c(F)cc(F)c1F [emricasan] | 8710
Nc1ccccc1NC(=O)c1ccc(CNC(=O)OCc2cccnc2)cc1 [entinostat] | 149
CCCCc1nc2cc(/C=C/C(=O)NO)ccc2n1CCN(CC)CC [pracinostat] | 210
O=C(CCCCCCC(=O)Nc1cccnc1)NO [pyroxamide] | > 19900
Cn1cc(CNCC2CCN(c3ncc(C(=O)NO)cn3)CC2)c2ccccc21 [quisinostat] | 90.7
COc1cccc(-c2ccc(NC(=O)C3=C(C(=O)O)CCC3)c(F)c2)c1 [vidofludimus] | > 19900

Same assay, conditions: concentration for half-maximal activity derived from the hill equation model; MEF2 luciferase reporter; read-out: qAC50

Compound | EC50 [nM]
O=C(Cc1ccc(-c2ccc(N3CCOCC3)cc2)cn1)NCc1cccc(F)c1 [KX-02] | 580
O=C(/C=C/c1ccc(CN(CCO)CCc2c[nH]c3ccccc23)cc1)NO [LAQ 824] | 530
C[C@H](Nc1cc(-c2cnn(C)c2)cc(Nc2cnccn2)n1)c1ccc(F)cc1 [NS-018] | 11200
CCCCc1ccc2[nH]c(NC(=O)OC)nc2c1 [PARBENDAZOLE] | 1750
CCC(C)SSc1ncc[nH]1 (centres unmarked) [PX-12] | 995
CCOC(=O)/C(=C/c1ncc([N+](=O)[O-])n1C)C(C)=O [Propenidazole] | 3110
COc1ccc2c(c1)-c1nn(CCCN(C)C)c3ccc([N+](=O)[O-])c(c13)N2 [Pyrazoloacridine] | > 19900
CN(C)C(C(=O)Nc1ccc2c(=O)[nH]ccc2c1)c1ccsc1 (centres unmarked) [Verosudil] | 7540
Cn1cnc2c(F)c(Nc3ccc(Br)cc3F)c(C(=O)NOCCO)cc21 [binimetinib] | > 19900
Cc1c(OCC(F)(F)F)ccnc1C[S@@+]([O-])c1nc2ccccc2[nH]1 [dexlansoprazole] | > 19900
CN(C)c1ccc2nc3ccc(N(C)C)cc3[s+]c2c1 [methylthioninium chloride] | 3770
CC(C)(C)c1[nH]cnc1/C=c1\[nH]c(=O)/c(=C/c2ccccc2)[nH]c1=O [plinabulin] | 2670
CN(C)Cc1ccc(S(=O)(=O)n2ccc(/C=C/C(=O)NO)c2)cc1 [resminostat] | 1230
O=C(CCCCCCNC(=O)c1cnc(N(c2ccccc2)c2ccccc2)nc1)NO [ricolinostat] | 2790
Acriflavine | 2310
CY-190602 | 2410
Chidamide | 36.6
OXAMFLATIN | > 19900
XR 5944 | 4520
retapamulin | 19600

Same assay, conditions: primary screen, 10 μM

Compound | increase in MEF2 activity in the primary screen [fold]
CC(C)[C@H](C(=O)Nc1ccc(C(=O)NO)cc1)c1ccccc1 [AR-42] | > 3

Same assay, conditions: read-out: qAC50

Compound | EC50 [nM]
CC[C@]1(O)C[C@@H]2CN(CCc3c([nH]c4ccccc34)[C@@](C(=O)OC)(c3cc4c(cc3OC)N(C)[C@H]3[C@@](O)(C(=O)OC)[C@H](OC(C)=O)[C@]5(CC)C=CCN6CC[C@]43[C@@H]65)C2)C1 [Vinblastine sulfate] | 67.3

System: MEF2 transcriptional activity
Assay: Confirmatory screen and Renilla counter-screen of MEF2 reporter activity
Type: cell-based, human
Settings: n=3
Description: FIG. 4. Dose-response for hits in the Renilla counterscreen. Dose response plots for AR-42, that had high EC50 and >3-fold increase in MEF2 activity in the primary screen. (n=3).
(§1) In an embodiment, a compound for use in a method as described herein is AR-42 (Table 1).

Compound | MEF2 transcriptional activity corrected with control Renilla-based (non-specific) reporter
CC(C)[C@H](C(=O)Nc1ccc(C(=O)NO)cc1)c1ccccc1 [AR-42] | increased MEF2 transcriptional activity

System: MEF2C haploinsufficiency syndrome (MCHS) patient hiPSC-derived cerebrocortical neurons
Assay: Calcium events (fluo-4AM) in MCHS patient hiPSC-derived cerebrocortical neurons
Type: cell-based, human
Settings: MCHS neurons against isogenic WT control
Description: FIGS. 6A and 6B. AR-42 decreases hyperelectrical activity in MEF2C haploinsufficiency syndrome (MCHS) patient hiPSC-derived cerebrocortical neurons. (FIG. 5A) Representative traces of calcium events using fluo-4AM calcium-sensitive dye in hiPSC-derived neurons. […] (FIG. 5B) Quantification of calcium event frequency. Data represent mean±SEM. Sample size was 5 neurons imaged per coverslip in 3 coverslips. * P<0.05 by one-way ANOVA and Tukey post-hoc test.
as §1

Compound | aberrant hyperactivity (Ca^2+ signaling, calcium event frequency)
CC(C)[C@H](C(=O)Nc1ccc(C(=O)NO)cc1)c1ccccc1 [AR-42] | normalizes this aberrant, excessive activity; also recorded: decreased aberrant hyperactivity

System: MEF2C haploinsufficient (MHCS) patient hiPSC-derived cerebrocortical neurons
Assay: MAP2 protein expression (immunoblot) in MCHS patient hiPSC-derived cerebrocortical neurons
Type: cell-based, human
Settings: MCHS neurons versus WT control, in vitro
Description: FIGS. 5A and 5B. […] (FIG. 4A) MAP2 protein expression in neurons treated with AR-42 and (n=3 in 2 independent experiments). (FIG. 4B) Representative immunoblot of MAP2 expression and GAPDH loading control. Data represented as mean±SEM. * P<0.05 by one-way ANOVA and Tukey post-hoc test.
Additionally, the neurons of patients with MEF2C haploinsufficiency syndrome (MCHS) display shorter neurites. The neuronal marker MAP2 was monitored as a biomarker for neurites in the MCHS hiPSC-derived neurons versus WT control: compromised levels of MAP2 were found, but they were corrected by treatment with AR-42 in vitro (FIGS. 6A and 6B). These types of assays correlate well with improvement in behavioral studies in this type of ASD/ID, as illustrated by the use mouse models of MCHS (S. Tu (2017)).

Compound | MAP2 levels (neurite biomarker)
CC(C)[C@H](C(=O)Nc1ccc(C(=O)NO)cc1)c1ccccc1 [AR-42] | increase MAP2 levels; also recorded: corrected

System: not given
Assay: not given
Settings: literature references given; cited from earlier work

Compound | PAMPA Pe (10^−6 cm s^−1)
Nc1c2ccccc2nc2ccccc12 [ACRISORCIN] | 6 10^−6 cm s^−1
CNS(=O)(=O)Nc1nccc(Cc2c(C)c3ccc(Oc4ncccn4)cc3oc2=O)c1F [RO-5126766] | 6 10^−6 cm s^−1
